Laboratory results published in ChEMBL document CHEMBL3885861, “Open TG-GATES”.

Species on record: Rattus norvegicus
Assay: Open TG-GATES - Regimen: Single
Format: toxicity, organism-based, Sprague-Dawley
Parameters: regimen Single, gender Male, age 6 weeks
Conditions: in vivo, po, 150 mg/kg, route gavage, dose level Middle; for Bas / Eos / Fbg / Hb / Ht / Lym / MCH / MCHC / MCV / Mono / Neu / PT / Plat / RBC / Ret / WBC: tissue Blood; for KIDNEY_L / KIDNEY_R / KIDNEY_TOTAL: tissue Kidney; for LIVER: tissue Liver; for ALP / ALT / AST / BUN / CRE / Ca / Cl / DBIL / GLC / IP / K / LDH / Na / PL / RALB / TBIL / TC / TG / TP / gamma-GTP: tissue Plasma

SMILES: CN(C)CCCN1c2ccccc2Sc2ccc(Cl)cc21 [CHLORPROMAZINE]
- TERMINAL_BW (6 h): 215.2 g
- Bas (6 h): 0%
- Eos (6 h): 1%
- Fbg (6 h): 209.8 mg/dL
- Hb (6 h): 12.4 g/dL
- Ht (6 h): 36.4%
- Lym (6 h): 73%
- MCH (6 h): 21 pg
- MCHC (6 h): 34.2%
- MCV (6 h): 61.6 fL
- Mono (6 h): 2.4%
- Neu (6 h): 23%
- PT (6 h): 12.7 s
- Plat (6 h): 122.6 x10_4/uL
- RBC (6 h): 591.2 x10_4/ul
- Ret (6 h): 7.9%
- WBC (6 h): 46.9 x10_2/uL
- KIDNEY_L (6 h): 0.9 g
- KIDNEY_R (6 h): 1 g
- KIDNEY_TOTAL (6 h): 1.9 g
- LIVER (6 h): 9.4 g
- ALP (6 h): 685.2 IU/L
- ALT (6 h): 29.4 IU/L
- AST (6 h): 67.2 IU/L
- BUN (6 h): 9.4 mg/dL
- CRE (6 h): 0.4 mg/dL
- Ca (6 h): 10.4 mg/dL
- Cl (6 h): 105.6 meq/L
- DBIL (6 h): 0.064 mg/dL
- GLC (6 h): 246.2 mg/dL
- IP (6 h): 10.5 mg/dL
- K (6 h): 3.5 meq/L
- LDH (6 h): 214.6 IU/L
- Na (6 h): 144.4 meq/L
- PL (6 h): 127.6 mg/dL
- RALB (6 h): 3.3 g/dL
- TBIL (6 h): 0.1 mg/dL
- TC (6 h): 72.6 mg/dL
- TG (6 h): 26.2 mg/dL
- TP (6 h): 5.3 g/dL
- gamma-GTP (6 h): 0.8 IU/L
- TERMINAL_BW (9 h): 211.5 g
- Bas (9 h): 0%
- Eos (9 h): 1%
- Fbg (9 h): 222.4 mg/dL
- Hb (9 h): 12.4 g/dL
- Ht (9 h): 36.9%
- Lym (9 h): 71.8%
- MCH (9 h): 21.1 pg
- MCHC (9 h): 33.7%
- MCV (9 h): 62.7 fL
- Mono (9 h): 4%
- Neu (9 h): 20%
- PT (9 h): 12.7 s
- Plat (9 h): 126.5 x10_4/uL
- RBC (9 h): 590.6 x10_4/ul
- Ret (9 h): 8.3%
- WBC (9 h): 40.7 x10_2/uL
- KIDNEY_L (9 h): 0.9 g
- KIDNEY_R (9 h): 0.9 g
- KIDNEY_TOTAL (9 h): 1.8 g
- LIVER (9 h): 8.8 g
- ALP (9 h): 813.8 IU/L
- ALT (9 h): 29 IU/L
- AST (9 h): 64.2 IU/L
- BUN (9 h): 10.6 mg/dL
- CRE (9 h): 0.4 mg/dL
- Ca (9 h): 10.6 mg/dL
- Cl (9 h): 105.6 meq/L
- DBIL (9 h): 0.07 mg/dL
- GLC (9 h): 237.8 mg/dL
- IP (9 h): 10.8 mg/dL
- K (9 h): 3.6 meq/L
- LDH (9 h): 171.4 IU/L
- Na (9 h): 143.2 meq/L
- PL (9 h): 136.6 mg/dL
- RALB (9 h): 3.4 g/dL
- TBIL (9 h): 0.1 mg/dL
- TC (9 h): 81 mg/dL
- TG (9 h): 17.6 mg/dL
- TP (9 h): 5.4 g/dL
- gamma-GTP (9 h): 1 IU/L
- TERMINAL_BW (24 h): 194.9 g
- Bas (24 h): 0.4%
- Eos (24 h): 1%
- Fbg (24 h): 215.4 mg/dL
- Hb (24 h): 13.6 g/dL
- Ht (24 h): 39.9%
- Lym (24 h): 69.2%
- MCH (24 h): 21.3 pg
- MCHC (24 h): 34.2%
- MCV (24 h): 62.3 fL
- Mono (24 h): 5.2%
- Neu (24 h): 23.2%
- PT (24 h): 11.4 s
- Plat (24 h): 152.2 x10_4/uL
- RBC (24 h): 640.4 x10_4/ul
- Ret (24 h): 7.1%
- WBC (24 h): 43.7 x10_2/uL
- KIDNEY_L (24 h): 0.9 g
- KIDNEY_R (24 h): 0.9 g
- KIDNEY_TOTAL (24 h): 1.8 g
- LIVER (24 h): 7.8 g
- ALP (24 h): 873.2 IU/L
- ALT (24 h): 24.6 IU/L
- AST (24 h): 82 IU/L
- BUN (24 h): 14.2 mg/dL
- CRE (24 h): 0.4 mg/dL
- Ca (24 h): 10.5 mg/dL
- Cl (24 h): 104.4 meq/L
- DBIL (24 h): 0.072 mg/dL
- GLC (24 h): 239 mg/dL
- IP (24 h): 10.6 mg/dL
- K (24 h): 3.7 meq/L
- LDH (24 h): 257.2 IU/L
- Na (24 h): 144.8 meq/L
- PL (24 h): 138 mg/dL
- RALB (24 h): 3.6 g/dL
- TBIL (24 h): 0.1 mg/dL
- TC (24 h): 77.6 mg/dL
- TG (24 h): 21.2 mg/dL
- TP (24 h): 5.8 g/dL
- gamma-GTP (24 h): 0.8 IU/L
